According to EP0572122A2, “C-terminal modified osteogenic growth polypeptides” (YISSUM RESEARCH AND DEVELOPMENT COMPANY OF THE HEBREW …, priority 1992, dated 1993):

Test system: anti-OGP IgG
Test: ELISA reactivity of peptides with the anti-OGP IgG preparation
Format: binding, rabbits
Settings: polyclonal rabbit anti-OGP IgG fraction
Experimental: The wells were washed with 200 µl PBS (x3). Blocking of unreacted sites on the plastic well bottom was carried out by incubation of 1% gelatine in PBS at 37°C for 1 h. Rinsing with PBS (3 x 200 µl) was followed by 2 h incubation with the anti-OGP IgG preparation (diluted 1:300 with reference to the original rabbit anti-serum) at room temperature. This was followed by rinsing with (i) 3% BSA in PBS (1 x 200 µl); (ii) 0.02% Tween 20 in PBS (1 x 200 µl); and (iii) PBS (3 x 200 µl). The wells were then incubated with 100 µl of 1:1000 dilution in PBS of goat alkaline phosphatase conjugated anti-rabbit IgG for 2 h at room temperature. Rinsing with (i) 0.02% Tween in PBS (1 x 200 µl); (ii) PBS (2 x 200 µl); (iii) bidistilled water (3 x 200 µl) preceded a 20 min incubation at room temperature with alkaline phosphatase buffer solution: p-nitrophenyl phosphate 1 mg/ml in substrate buffer (diethanolamine buffer pH 9.6). Light absorbance at 450 nm was then recorded using an ELISA reader.

Substance: parathyroid hormone (PTH) (1-34) [PTH (1-34)]
- binding to / reaction with anti-OGP IgG in ELISA: failed to react
